Measurements published in patent US6673812B1, “Preventives/remedies for glaucoma” (Senju Pharmaceutical Co., Ltd., priority 1998, dated 2004).

Test system: Japanese white rabbits
Assay: Ophthalmic disorder caused by 8-time-a-day instillation to white rabbits: macroscopic observation of anterior segment of the eye
Format: in vivo, rabbit
Design: scale not given here
Settings: mean of three eyes
Experimental: The test drugs, Compound A and Compound C, were each dissolved in the following base at a concentration of 0.125, 0.25, 0.5 and 1.0% and adjusted to pH 7 for use in this experiment. [table] Japanese white rabbits (body weight about 2 kg) purchased from Japan Laboratory Animals, INC. were used. These animals were bred in a breeding chamber set to temperature 23±3° C., humidity 55±10% and fed on limited amount of 100 g a day of a solid feed (Labo R Stock, Nihon-Nosan Kogyo K.K.). They were allowed free access to tap water. Instillation: Using a micropipet, each test drug (100 μl) was instilled into the right eye of each animal 8 times at one hour intervals. Into the left eye was instilled a base in the same manner. Observation: anterior segment of the eye was macroscopically observed before instillation and 30 min after 2nd, 4th, 6th and 8th administrations, according to the macroscopic criteria for ocular lesions as shown in Table 1 (Naruyuki Fukui, […] no Rinshou 4, 277-289, 1970). In addition, corneal staining spot was observed before instillation and after 8th administration. [table]

[1] = 0.125%, 30 min after 2nd instillation
[2] = 0.125%, 30 min after 4th instillation
[3] = 0.125%, 30 min after 6th instillation
[4] = 0.125%, 30 min after 8th instillation
[5] = 0.25%, 30 min after 2nd instillation
[6] = 0.25%, 30 min after 4th instillation
[7] = 0.25%, 30 min after 6th instillation
[8] = 0.25%, 30 min after 8th instillation
[9] = 0.5%, 30 min after 2nd instillation
[10] = 0.5%, 30 min after 4th instillation
[11] = 0.5%, 30 min after 6th instillation
[12] = 0.5%, 30 min after 8th instillation
[13] = 1.0%, 30 min after 2nd instillation
[14] = 1.0%, 30 min after 4th instillation
[15] = 1.0%, 30 min after 6th instillation
[16] = 1.0%, 30 min after 8th instillation

Score of ocular lesions: Conjunctiva Bulbar redness [1]: 0.33 | Score of ocular lesions: Conjunctiva Discharge [1]: 0 | Score of ocular lesions: Conjunctiva Nictitating membrane [1]: 0 | Score of ocular lesions: Conjunctiva Palpebral edema [1]: 0 | Score of ocular lesions: Conjunctiva Palpebral redness [1]: 0.17 | Score of ocular lesions: Cornea Area [1]: 0 | Score of ocular lesions: Cornea Degree [1]: 0 | Score of ocular lesions: Iris Values [1]: 0 | Score of ocular lesions: Total score [1]: 0.50 | Score of ocular lesions: Conjunctiva Bulbar redness [2]: 0.33 | Score of ocular lesions: Conjunctiva Discharge [2]: 0.17 | Score of ocular lesions: Conjunctiva Nictitating membrane [2]: 0 | Score of ocular lesions: Conjunctiva Palpebral edema [2]: 0 | Score of ocular lesions: Conjunctiva Palpebral redness [2]: 0 | Score of ocular lesions: Cornea Area [2]: 0 | Score of ocular lesions: Cornea Degree [2]: 0 | Score of ocular lesions: Iris Values [2]: 0 | Score of ocular lesions: Total score [2]: 0.50 | Score of ocular lesions: Conjunctiva Bulbar redness [3]: 0.33 | Score of ocular lesions: Conjunctiva Discharge [3]: 0.50 | Score of ocular lesions: Conjunctiva Nictitating membrane [3]: 0 | Score of ocular lesions: Conjunctiva Palpebral edema [3]: 0.33 | Score of ocular lesions: Conjunctiva Palpebral redness [3]: 0.33 | Score of ocular lesions: Cornea Area [3]: 0 | Score of ocular lesions: Cornea Degree [3]: 0 | Score of ocular lesions: Iris Values [3]: 0 | Score of ocular lesions: Total score [3]: 1.99 | Score of ocular lesions: Conjunctiva Bulbar redness [4]: 0.33 | Score of ocular lesions: Conjunctiva Discharge [4]: 0 | Score of ocular lesions: Conjunctiva Nictitating membrane [4]: 0.17 | Score of ocular lesions: Conjunctiva Palpebral edema [4]: 0.50 | Score of ocular lesions: Conjunctiva Palpebral redness [4]: 0.33 | Score of ocular lesions: Cornea Area [4]: 0 | Score of ocular lesions: Cornea Degree [4]: 0 | Score of ocular lesions: Iris Values [4]: 0 | Score of ocular lesions: Total score [4]: 1.33 | Score of ocular lesions: Conjunctiva Bulbar redness (0.125%, Before instillation): 0 | Score of ocular lesions: Conjunctiva Discharge (0.125%, Before instillation): 0 | Score of ocular lesions: Conjunctiva Nictitating membrane (0.125%, Before instillation): 0 | Score of ocular lesions: Conjunctiva Palpebral edema (0.125%, Before instillation): 0 | Score of ocular lesions: Conjunctiva Palpebral redness (0.125%, Before instillation): 0 | Score of ocular lesions: Cornea Area (0.125%, Before instillation): 0 | Score of ocular lesions: Cornea Degree (0.125%, Before instillation): 0 | Score of ocular lesions: Iris Values (0.125%, Before instillation): 0 | Score of ocular lesions: Total score (0.125%, Before instillation): 0 | Score of ocular lesions: Conjunctiva Bulbar redness [5]: 0.50 | Score of ocular lesions: Conjunctiva Discharge [5]: 0 | Score of ocular lesions: Conjunctiva Nictitating membrane [5]: 0.17 | Score of ocular lesions: Conjunctiva Palpebral edema [5]: 0 | Score of ocular lesions: Conjunctiva Palpebral redness [5]: 0.17 | Score of ocular lesions: Cornea Area [5]: 0 | Score of ocular lesions: Cornea Degree [5]: 0 | Score of ocular lesions: Iris Values [5]: 0 | Score of ocular lesions: Total score [5]: 0.84 | Score of ocular lesions: Conjunctiva Bulbar redness [6]: 0.50 | Score of ocular lesions: Conjunctiva Discharge [6]: 0.17 | Score of ocular lesions: Conjunctiva Nictitating membrane [6]: 0.50 | Score of ocular lesions: Conjunctiva Palpebral edema [6]: 0 | Score of ocular lesions: Conjunctiva Palpebral redness [6]: 0 | Score of ocular lesions: Cornea Area [6]: 0 | Score of ocular lesions: Cornea Degree [6]: 0 | Score of ocular lesions: Iris Values [6]: 0 | Score of ocular lesions: Total score [6]: 1.00 | Score of ocular lesions: Conjunctiva Bulbar redness [7]: 0.50 | Score of ocular lesions: Conjunctiva Discharge [7]: 0.50 | Score of ocular lesions: Conjunctiva Nictitating membrane [7]: 0.50 | Score of ocular lesions: Conjunctiva Palpebral edema [7]: 0.17 | Score of ocular lesions: Conjunctiva Palpebral redness [7]: 0.33 | Score of ocular lesions: Cornea Area [7]: 0 | Score of ocular lesions: Cornea Degree [7]: 0 | Score of ocular lesions: Iris Values [7]: 0 | Score of ocular lesions: Total score [7]: 1.50 | Score of ocular lesions: Conjunctiva Bulbar redness [8]: 0.83 | Score of ocular lesions: Conjunctiva Discharge [8]: 0 | Score of ocular lesions: Conjunctiva Nictitating membrane [8]: 0.50 | Score of ocular lesions: Conjunctiva Palpebral edema [8]: 0 | Score of ocular lesions: Conjunctiva Palpebral redness [8]: 0.33 | Score of ocular lesions: Cornea Area [8]: 0 | Score of ocular lesions: Cornea Degree [8]: 0 | Score of ocular lesions: Iris Values [8]: 0 | Score of ocular lesions: Total score [8]: 1.66 | Score of ocular lesions: Conjunctiva Bulbar redness (0.25%, Before instillation): 0 | Score of ocular lesions: Conjunctiva Discharge (0.25%, Before instillation): 0 | Score of ocular lesions: Conjunctiva Nictitating membrane (0.25%, Before instillation): 0 | Score of ocular lesions: Conjunctiva Palpebral edema (0.25%, Before instillation): 0 | Score of ocular lesions: Conjunctiva Palpebral redness (0.25%, Before instillation): 0 | Score of ocular lesions: Cornea Area (0.25%, Before instillation): 0 | Score of ocular lesions: Cornea Degree (0.25%, Before instillation): 0 | Score of ocular lesions: Iris Values (0.25%, Before instillation): 0 | Score of ocular lesions: Total score (0.25%, Before instillation): 0 | Score of ocular lesions: Conjunctiva Bulbar redness [9]: 0.50 | Score of ocular lesions: Conjunctiva Discharge [9]: 0 | Score of ocular lesions: Conjunctiva Nictitating membrane [9]: 0 | Score of ocular lesions: Conjunctiva Palpebral edema [9]: 0.17 | Score of ocular lesions: Conjunctiva Palpebral redness [9]: 0.17 | Score of ocular lesions: Cornea Area [9]: 0 | Score of ocular lesions: Cornea Degree [9]: 0 | Score of ocular lesions: Iris Values [9]: 0 | Score of ocular lesions: Total score [9]: 0.49 | Score of ocular lesions: Conjunctiva Bulbar redness [10]: 0.50 | Score of ocular lesions: Conjunctiva Discharge [10]: 0.33 | Score of ocular lesions: Conjunctiva Nictitating membrane [10]: 0.33 | Score of ocular lesions: Conjunctiva Palpebral edema [10]: 0.17 | Score of ocular lesions: Conjunctiva Palpebral redness [10]: 0.17 | Score of ocular lesions: Cornea Area [10]: 0 | Score of ocular lesions: Cornea Degree [10]: 0 | Score of ocular lesions: Iris Values [10]: 0 | Score of ocular lesions: Total score [10]: 1.50 | Score of ocular lesions: Conjunctiva Bulbar redness [11]: 0.50 | Score of ocular lesions: Conjunctiva Discharge [11]: 2.67 | Score of ocular lesions: Conjunctiva Nictitating membrane [11]: 0.50 | Score of ocular lesions: Conjunctiva Palpebral edema [11]: 0.83 | Score of ocular lesions: Conjunctiva Palpebral redness [11]: 0.67 | Score of ocular lesions: Cornea Area [11]: 0 | Score of ocular lesions: Cornea Degree [11]: 0 | Score of ocular lesions: Iris Values [11]: 0 | Score of ocular lesions: Total score [11]: 5.17 | Score of ocular lesions: Conjunctiva Bulbar redness [12]: 0.83 | Score of ocular lesions: Conjunctiva Discharge [12]: 1.17 | Score of ocular lesions: Conjunctiva Nictitating membrane [12]: 0.67 | Score of ocular lesions: Conjunctiva Palpebral edema [12]: 0.67 | Score of ocular lesions: Conjunctiva Palpebral redness [12]: 0.67 | Score of ocular lesions: Cornea Area [12]: 0 | Score of ocular lesions: Cornea Degree [12]: 0 | Score of ocular lesions: Iris Values [12]: 0 | Score of ocular lesions: Total score [12]: 4.01 | Score of ocular lesions: Conjunctiva Bulbar redness (0.5%, Before instillation): 0.17 | Score of ocular lesions: Conjunctiva Discharge (0.5%, Before instillation): 0 | Score of ocular lesions: Conjunctiva Nictitating membrane (0.5%, Before instillation): 0 | Score of ocular lesions: Conjunctiva Palpebral edema (0.5%, Before instillation): 0 | Score of ocular lesions: Conjunctiva Palpebral redness (0.5%, Before instillation): 0 | Score of ocular lesions: Cornea Area (0.5%, Before instillation): 0 | Score of ocular lesions: Cornea Degree (0.5%, Before instillation): 0 | Score of ocular lesions: Iris Values (0.5%, Before instillation): 0 | Score of ocular lesions: Total score (0.5%, Before instillation): 0.17 | Score of ocular lesions: Conjunctiva Bulbar redness [13]: 0.50 | Score of ocular lesions: Conjunctiva Discharge [13]: 0.33 | Score of ocular lesions: Conjunctiva Nictitating membrane [13]: 0.17 | Score of ocular lesions: Conjunctiva Palpebral edema [13]: 0.67 | Score of ocular lesions: Conjunctiva Palpebral redness [13]: 0.50 | Score of ocular lesions: Cornea Area [13]: 0 | Score of ocular lesions: Cornea Degree [13]: 0 | Score of ocular lesions: Iris Values [13]: 0 | Score of ocular lesions: Total score [13]: 2.17 | Score of ocular lesions: Conjunctiva Bulbar redness [14]: 0.50 | Score of ocular lesions: Conjunctiva Discharge [14]: 0.67 | Score of ocular lesions: Conjunctiva Nictitating membrane [14]: 0.50 | Score of ocular lesions: Conjunctiva Palpebral edema [14]: 0.67 | Score of ocular lesions: Conjunctiva Palpebral redness [14]: 0.50 | Score of ocular lesions: Cornea Area [14]: 0 | Score of ocular lesions: Cornea Degree [14]: 0 | Score of ocular lesions: Iris Values [14]: 0 | Score of ocular lesions: Total score [14]: 2.84 | Score of ocular lesions: Conjunctiva Bulbar redness [15]: 1.17 | Score of ocular lesions: Conjunctiva Discharge [15]: 1.67 | Score of ocular lesions: Conjunctiva Nictitating membrane [15]: 0.67 | Score of ocular lesions: Conjunctiva Palpebral edema [15]: 1.33 | Score of ocular lesions: Conjunctiva Palpebral redness [15]: 0.83 | Score of ocular lesions: Cornea Area [15]: 0 | Score of ocular lesions: Cornea Degree [15]: 0 | Score of ocular lesions: Iris Values [15]: 0 | Score of ocular lesions: Total score [15]: 5.67 | Score of ocular lesions: Conjunctiva Bulbar redness [16]: 1.50 | Score of ocular lesions: Conjunctiva Discharge [16]: 2.33 | Score of ocular lesions: Conjunctiva Nictitating membrane [16]: 1.67 | Score of ocular lesions: Conjunctiva Palpebral edema [16]: 3.00 | Score of ocular lesions: Conjunctiva Palpebral redness [16]: 2.17 | Score of ocular lesions: Cornea Area [16]: 0 | Score of ocular lesions: Cornea Degree [16]: 0 | Score of ocular lesions: Iris Values [16]: 0 | Score of ocular lesions: Total score [16]: 10.67 | Score of ocular lesions: Conjunctiva Bulbar redness (1.0%, Before instillation): 0 | Score of ocular lesions: Conjunctiva Discharge (1.0%, Before instillation): 0 | Score of ocular lesions: Conjunctiva Nictitating membrane (1.0%, Before instillation): 0 | Score of ocular lesions: Conjunctiva Palpebral edema (1.0%, Before instillation): 0 | Score of ocular lesions: Conjunctiva Palpebral redness (1.0%, Before instillation): 0.17 | Score of ocular lesions: Cornea Area (1.0%, Before instillation): 0 | Score of ocular lesions: Cornea Degree (1.0%, Before instillation): 0 | Score of ocular lesions: Iris Values (1.0%, Before instillation): 0 | Score of ocular lesions: Total score (1.0%, Before instillation): 0.17
SMILES: CC(N)[C@H]1CC[C@H](C(=O)Nc2ccncc2)CC1.Cl.Cl.O (single isomer, unassigned; (+)) [Compound A, (+)-trans-4-(1-Aminoethyl)-1-(4-pyridylcarbamoyl)cyclohexane 2HCl 1H2O]
